Each structure is given as a SMILES string. pIC50: −log10 of the molar value. Read-outs that look alike come from different tables or passages of the source. Some results are limits rather than exact numbers.

This experiment relates to HIV-1 (HIVIIIB). Description: HIV-1 replication in MT2 cell line with and without 30% human serum (viral RT activity in supernatant). The settings on record: Human immunodeficiency virus 1, MT2, MT-2 cells, average IC50 if tested more than once. Type of experiment: cell-based. The method, then:
HIV-1 Replication in MT2 cell line with and without 30% human serum: The cells are infected at a Multiciplicity of Infection (MOI) of 0.5 for 3 h and then washed twice with complete media to remove residual virus. Cells are then resuspended at 0.5×10^6/ml in complete medium (RPMI, 10% FBS, 1% sodium pyruvate), and seeded into 96-well plates (6.25×10^4/well). The cells are cultured in the presence or absence of various concentrations of test compounds in serial dilutions for 3 days at 37° C. The test compounds are serially diluted in complete medium supplemented or not with 30% human serum. After 3 days, 100 μL of cultured medium with cells are replaced with 120 μL of freshly diluted test compounds in complete medium containing or not 30% Human serum. The level of HIV-1 replication is determined at days 5 after infection by the presence of viral RT activity in harvested supernatant fluid. The IC50 and IC90 values for the virus replication are determined by using GRAPHPAD PRISM software.
The IC50 of the compounds tested in accordance with the HIV replication activity assay MT-2 (HIVIIIB) are represented in Table 4 (without HS) and Table 5 (with 30% HS)

The mark [1] stands for this setting: with 30% human serum, read-out: MT-2 (HIVIIIB) with 30% HS IC50 range.
Setting [2] is: without HS, read-out: MT-2 (HIVIIIB) IC50 range.

The term pIC50 denotes the negative decadic logarithm of the IC50, by convention in mol/L. As for `Cc1ccnc(NC(=O)[C@@]23CC[C@]4(C)[C@H](CC[C@@H]5[C@@]6(C)CC[C@H](OC(=O)CC(C)(C)C(=O)O)C(C)(C)[C@@H]6CC[C@]54C)C2=C(C(C)C)C(=O)C3)n1` [9-56, 3β-O-(3′,3′-Dimethylsuccinyl)-21-oxolup-18-en-28-oic acid N-4-methyl-pyrimidin-2-yl-acetamide], the pIC50 under setting [1] was greater than 6.70.

Consider `Cc1nnc(NC(=O)[C@@]23CC[C@]4(C)[C@H](CC[C@@H]5[C@@]6(C)CC[C@H](OC(=O)CC(C)(C)C(=O)O)C(C)(C)[C@@H]6CC[C@]54C)C2=C(C(C)C)C(=O)C3)s1` [9-76, 3β-O-(3′,3′-Dimethylsuccinyl)-21-oxolup-18-en-28-oic acid N-(5-methyl-[1,3,4]thiadiazol-2-yl)-acetamide], for which the pIC50 under setting [1] is greater than 6.70.

`CC(C)C1=C2[C@H]3CC[C@@H]4[C@@]5(C)CC[C@H](OC(=O)CC(C)(C)C(=O)O)C(C)(C)[C@@H]5CC[C@@]4(C)[C@]3(C)CC[C@@]2(C(=O)N2CCN(C)CC2)CC1=O` [9-9, 3β-O-(3′,3′-Dimethylsuccinyl)-21-oxolup-18-en-28-oic acid N-(4-methylpiperazinyl) acetamide]: the pIC50 under setting [1] was greater than 6.70.

Consider `CC(C)NC(=O)N1CCN(C(=O)[C@@]23CC[C@]4(C)[C@H](CC[C@@H]5[C@@]6(C)CC[C@H](OC(=O)CC(C)(C)C(=O)O)C(C)(C)[C@@H]6CC[C@]54C)C2=C(C(C)C)C(=O)C3)CC1` [9-39, 3β-O-(3′,3′-Dimethylsuccinyl)-21-oxolup-18-en-28-oic acid N-(4-N′-isopropylureido-1-piperazine)-acetamide], for which, under setting [1], the pIC50 is greater than 6.70.

`CC(=O)N1CCC(NC(=O)[C@@]23CC[C@]4(C)[C@H](CC[C@@H]5[C@@]6(C)CC[C@H](OC(=O)CC(C)(C)C(=O)O)C(C)(C)[C@@H]6CC[C@]54C)C2=C(C(C)C)C(=O)C3)CC1` [9-32, 3β-O-(3′,3′-Dimethylsuccinyl)-21-oxolup-18-en-28-oic acid N-(4-amino-N-1-acetyl-piperidine)-acetamide]: under setting [1], the negative-log IC50 (pIC50) was greater than 6.70.

Consider `CC(C)C1=C2[C@H]3CC[C@@H]4[C@@]5(C)CC[C@H](OC(=O)CC(C)(C)C(=O)O)C(C)(C)[C@@H]5CC[C@@]4(C)[C@]3(C)CC[C@@]2(C(=O)Nc2nnnn2C)CC1=O` [9-66, 3β-O-(3′,3′-Dimethylsuccinyl)-21-oxolup-18-en-28-oic acid N-(1-methyl-1H-tetrazol-5-yl)-acetamide], for which the pIC50 under setting [1] was 6.00 to 6.70.

As for `CC(C)C1=C2[C@H]3CC[C@@H]4[C@@]5(C)CC[C@H](OC(=O)CC(C)(C)C(=O)O)C(C)(C)[C@@H]5CC[C@@]4(C)[C@]3(C)CC[C@@]2(C(=O)Nc2ccncn2)CC1=O` [9-64, 3β-O-(3′,3′-Dimethylsuccinyl)-21-oxolup-18-en-28-oic acid N-pyrimidin-4-yl-acetamide], the pIC50 under setting [1] was greater than 6.70.

As to `CC(C)C1=C2[C@H]3CC[C@@H]4[C@@]5(C)CC[C@H](OC(=O)CC(C)(C)C(=O)O)C(C)(C)[C@@H]5CC[C@@]4(C)[C@]3(C)CC[C@@]2(C(=O)N2CCC(F)(F)CC2)CC1=O` [9-94, 3β-O-(3′,3′-Dimethylsuccinyl)-21-oxolup-18-en-28-oic acid N-4,4-difluoro-piperidine acetamide], the negative-log IC50 (pIC50) under setting [1] was greater than 6.70.

On to `CC(C)C1=C2[C@H]3CC[C@@H]4[C@@]5(C)CC[C@H](OC(=O)CC(C)(C)C(=O)O)C(C)(C)[C@@H]5CC[C@@]4(C)[C@]3(C)CC[C@@]2(C(=O)Nc2cncnc2)CC1=O` [9-51, 3β-O-(3′,3′-Dimethylsuccinyl)-21-oxolup-18-en-28-oic acid N-pyrimidin-5-yl-acetamide], for which the pIC50 under setting [1] is greater than 6.70.

With `CC(C)C1=C2C3CCC4[C@@]5(C)CC[C@H](OC(=O)CC(C)(C)C(=O)O)C(C)(C)C5CC[C@@]4(C)[C@]3(C)CC[C@@]2(C(=O)NC(C)(C)C(F)(F)F)CC1=O` (stereo partly drawn) [9-77, 3β-O-(3′,3′-Dimethylsuccinyl)-21-oxolup-18-en-28-oic acid N-(2,2,2-trifluoro-1,1-dimethyl-ethyl)-acetamide], the pIC50 under setting [1] is greater than 6.70.

On to `CC(C)C1=C2[C@H]3CC[C@@H]4[C@@]5(C)CC[C@H](OC(=O)CC(C)(C)C(=O)O)C(C)(C)[C@@H]5CC[C@@]4(C)[C@]3(C)CC[C@@]2(C(=O)NCC2CCCCC2)CC1=O` [9-5, 3β-O-(3′,3′-Dimethylsuccinyl)-21-oxolup-18-en-28-oic acid N-cyclohexyl methylamide], for which, under setting [2], the negative-log IC50 (pIC50) is greater than 6.70.

On to `CC(C)C1=C2[C@H]3CC[C@@H]4[C@@]5(C)CC[C@H](OC(=O)CC(C)(C)C(=O)O)C(C)(C)[C@@H]5CC[C@@]4(C)[C@]3(C)CC[C@@]2(C(=O)NC(C)C(F)(F)F)CC1=O` (stereo partly drawn) [9-75, 3β-O-(3′,3′-Dimethylsuccinyl)-21-oxolup-18-en-28-oic acid N-(2,2,2-trifluoro-1-methyl-ethyl)-acetamide], for which, under setting [1], the pIC50 is greater than 6.70.

`CC(C)C1=C2C3CCC4[C@@]5(C)CC[C@H](OC(=O)CC(C)(C)C(=O)O)C(C)(C)C5CC[C@@]4(C)[C@]3(C)CC[C@@]2(C(=O)N(C)C(C)(C)C)CC1=O` (stereo partly drawn) [9-78, 3β-O-(3′,3′-Dimethylsuccinyl)-21-oxolup-18-en-28-oic acid N-tert-butyl-N-methyl-acetamide]: under setting [1], the negative-log IC50 (pIC50) is greater than 6.70.

As for `CC(C)C1=C2[C@H]3CC[C@@H]4[C@@]5(C)CC[C@H](OC(=O)CC(C)(C)C(=O)O)C(C)(C)[C@@H]5CC[C@@]4(C)[C@]3(C)CC[C@@]2(C(=O)Nc2ncccn2)CC1=O` [9-38, 3β-O-(3′,3′-Dimethylsuccinyl)-21-oxolup-18-en-28-oic acid N-pyrimidin-2-yl-acetamide], the pIC50 under setting [1] was greater than 6.70.

For the compound `CC(=O)N1CC2CCC(C1)N2C(=O)[C@@]12CC[C@]3(C)C(CCC4[C@@]5(C)CC[C@H](OC(=O)CC(C)(C)C(=O)O)C(C)(C)C5CC[C@]43C)C1=C(C(C)C)C(=O)C2` (stereo partly drawn) [9-95, 3β-O-(3′,3′-Dimethylsuccinyl)-21-oxolup-18-en-28-oic acid N-8-acetylamino-3,8-diaza-bicyclo[3.2.1]octane-3-acetamide], the negative logarithm of the IC50 (pIC50) under setting [1] was greater than 6.70.

Turning to `COc1ccc(CCNC(=O)[C@@]23CC[C@]4(C)[C@H](CC[C@@H]5[C@@]6(C)CC[C@H](OC(=O)CC(C)(C)C(=O)O)C(C)(C)[C@@H]6CC[C@]54C)C2=C(C(C)C)C(=O)C3)cc1` [9-19, 3β-O-(3′,3′-Dimethylsuccinyl)-21-oxolup-18-en-28-oic acid N-[2-(4-methoxy-phenyl)-ethyl]-acetamide], under setting [2], the pIC50 was greater than 6.70.

Take `CC(C)C1=C2[C@H]3CC[C@@H]4[C@@]5(C)CC[C@H](OC(=O)CC(C)(C)C(=O)O)C(C)(C)[C@@H]5CC[C@@]4(C)[C@]3(C)CC[C@@]2(C(=O)NC(C)c2ccccc2)CC1=O` (stereo partly drawn) [9-33, 3β-O-(3′,3′-Dimethylsuccinyl)-21-oxolup-18-en-28-oic acid N-(1-phenyl-ethyl)-acetamide]: the negative-log IC50 (pIC50) under setting [1] is greater than 6.70.

In the case of `Cc1ncncc1NC(=O)[C@@]12CC[C@]3(C)[C@H](CC[C@@H]4[C@@]5(C)CC[C@H](OC(=O)CC(C)(C)C(=O)O)C(C)(C)[C@@H]5CC[C@]43C)C1=C(C(C)C)C(=O)C2` [9-55, 3β-O-(3′,3′-Dimethylsuccinyl)-21-oxolup-18-en-28-oic acid N-4-methyl-pyrimidin-5-yl-acetamide], under setting [1], the negative logarithm of the IC50 (pIC50) was greater than 6.70.

For the origin of these results see patent US8431556B2, “C-21-keto lupane derivatives preparation and use thereof” (Vertex Pharmaceuticals Incorporated, priority 2008, dated 2013).
